This passage reports inhibition results from paper PMC9927415, “Tyrosine Kinase Inhibitors Display Potent Activity against Cryptosporidium parvum” (Microbiology Spectrum, 2022).

Common to all, as to test: KINOMEscan competitive binding, whole panel
In assay [1] the target is T1, panel of 203 kinases (Homo sapiens, UniProt P07332).
T1 construct: purchased DiscoverX (KINOMEscan)
To be noted: 10 µM, n=1; kinase FES; read-out: Percent inhibition FES. The procedure, abridged: (§1)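 First, kinases were produced as T7 bacteriophage fusion proteins. Then compounds were added to compete them off probe ligands immobilized on a solid support at the ATP site. Finally, bound kinase was measured and converted to percentage inhibition.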

The target of assay [2] is T2, panel of 203 kinases (Homo sapiens, UniProt P09769).
T2 construct: purchased DiscoverX (KINOMEscan)
T2 sequence (P09769 whole entry): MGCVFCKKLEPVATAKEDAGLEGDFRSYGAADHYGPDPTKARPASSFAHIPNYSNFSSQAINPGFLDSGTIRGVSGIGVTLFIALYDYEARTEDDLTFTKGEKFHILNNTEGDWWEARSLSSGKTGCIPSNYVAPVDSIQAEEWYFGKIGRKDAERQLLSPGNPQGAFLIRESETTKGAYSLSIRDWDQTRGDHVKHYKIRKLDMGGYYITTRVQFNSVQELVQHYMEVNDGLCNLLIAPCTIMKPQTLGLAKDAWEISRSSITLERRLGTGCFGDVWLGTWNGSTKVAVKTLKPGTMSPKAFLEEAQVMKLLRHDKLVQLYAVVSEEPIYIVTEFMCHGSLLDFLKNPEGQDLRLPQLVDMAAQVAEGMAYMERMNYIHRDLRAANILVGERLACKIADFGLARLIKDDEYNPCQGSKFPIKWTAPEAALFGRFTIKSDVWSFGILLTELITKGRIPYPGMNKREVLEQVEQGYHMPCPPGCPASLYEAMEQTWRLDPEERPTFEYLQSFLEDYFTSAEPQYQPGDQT
As to conditions: 10 µM, n=1; kinase FGR; read-out: Percent inhibition FGR. Put shortly:
as §1

In assay [3] the target is T3, panel of 203 kinases (Homo sapiens, UniProt P16591).
T3 construct: purchased DiscoverX (KINOMEscan)
T3 sequence (P16591 whole entry): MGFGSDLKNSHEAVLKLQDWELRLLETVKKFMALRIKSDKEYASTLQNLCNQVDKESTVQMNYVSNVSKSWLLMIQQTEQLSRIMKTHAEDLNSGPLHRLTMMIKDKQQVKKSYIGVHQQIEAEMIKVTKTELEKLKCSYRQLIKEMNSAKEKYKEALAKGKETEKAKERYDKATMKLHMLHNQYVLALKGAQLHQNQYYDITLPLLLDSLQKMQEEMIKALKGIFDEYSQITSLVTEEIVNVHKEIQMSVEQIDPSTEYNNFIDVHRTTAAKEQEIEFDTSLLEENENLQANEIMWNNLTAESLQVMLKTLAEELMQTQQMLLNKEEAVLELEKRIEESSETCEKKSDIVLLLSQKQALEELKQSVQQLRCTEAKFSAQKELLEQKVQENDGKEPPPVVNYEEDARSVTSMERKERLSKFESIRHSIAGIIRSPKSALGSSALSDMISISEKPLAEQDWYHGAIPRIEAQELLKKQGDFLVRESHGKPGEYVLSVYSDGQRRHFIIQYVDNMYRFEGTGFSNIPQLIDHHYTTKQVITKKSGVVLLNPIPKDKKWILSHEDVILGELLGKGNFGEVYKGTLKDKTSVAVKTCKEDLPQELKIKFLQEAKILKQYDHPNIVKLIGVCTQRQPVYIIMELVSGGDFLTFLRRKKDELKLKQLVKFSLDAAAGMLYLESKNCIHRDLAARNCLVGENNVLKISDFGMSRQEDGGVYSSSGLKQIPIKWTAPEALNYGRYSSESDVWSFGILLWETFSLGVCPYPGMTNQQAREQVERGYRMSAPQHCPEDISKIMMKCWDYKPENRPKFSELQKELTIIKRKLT
To be noted: 10 µM, n=1; kinase FER; read-out: Percent inhibition FER. The procedure, abridged:
as §1

The target in assay [4] is T4, panel of 203 kinases (Homo sapiens, UniProt P22455).
T4 construct: purchased DiscoverX (KINOMEscan)
T4 sequence (P22455 22-802): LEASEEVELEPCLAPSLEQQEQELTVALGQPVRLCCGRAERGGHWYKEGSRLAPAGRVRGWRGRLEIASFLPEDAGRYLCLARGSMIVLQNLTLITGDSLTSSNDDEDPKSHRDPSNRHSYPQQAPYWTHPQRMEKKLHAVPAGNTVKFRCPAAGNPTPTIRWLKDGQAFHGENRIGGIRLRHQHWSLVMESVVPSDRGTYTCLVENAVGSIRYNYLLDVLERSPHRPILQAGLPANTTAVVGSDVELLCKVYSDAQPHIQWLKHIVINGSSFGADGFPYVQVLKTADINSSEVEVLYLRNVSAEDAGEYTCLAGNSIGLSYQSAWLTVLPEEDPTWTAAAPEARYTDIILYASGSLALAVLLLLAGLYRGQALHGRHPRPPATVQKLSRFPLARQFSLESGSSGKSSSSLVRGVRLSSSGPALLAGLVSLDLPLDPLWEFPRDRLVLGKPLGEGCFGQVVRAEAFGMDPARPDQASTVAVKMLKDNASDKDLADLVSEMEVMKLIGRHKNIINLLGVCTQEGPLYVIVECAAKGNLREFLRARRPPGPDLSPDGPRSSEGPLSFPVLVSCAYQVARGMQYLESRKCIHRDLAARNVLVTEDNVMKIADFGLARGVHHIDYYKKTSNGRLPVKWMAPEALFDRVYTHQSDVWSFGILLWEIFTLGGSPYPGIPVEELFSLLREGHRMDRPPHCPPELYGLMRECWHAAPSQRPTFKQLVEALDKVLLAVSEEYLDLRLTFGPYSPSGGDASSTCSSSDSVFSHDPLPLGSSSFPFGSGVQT
As to conditions: 10 µM, n=1; kinase FGFR4; read-out: Percent inhibition FGFR4. Put shortly: as §1

Assay [5] addresses T5, panel of 203 kinases (Homo sapiens, UniProt P29317).
T5 construct: purchased DiscoverX (KINOMEscan)
To be noted: 10 µM, n=1; kinase EPHA2; read-out: Percent inhibition EPHA2. The procedure, abridged:
as §1

Assay [6] deals with T6, panel of 203 kinases (Homo sapiens, UniProt P54760).
T6 construct: purchased DiscoverX (KINOMEscan)
T6 sequence (P54760 16-987): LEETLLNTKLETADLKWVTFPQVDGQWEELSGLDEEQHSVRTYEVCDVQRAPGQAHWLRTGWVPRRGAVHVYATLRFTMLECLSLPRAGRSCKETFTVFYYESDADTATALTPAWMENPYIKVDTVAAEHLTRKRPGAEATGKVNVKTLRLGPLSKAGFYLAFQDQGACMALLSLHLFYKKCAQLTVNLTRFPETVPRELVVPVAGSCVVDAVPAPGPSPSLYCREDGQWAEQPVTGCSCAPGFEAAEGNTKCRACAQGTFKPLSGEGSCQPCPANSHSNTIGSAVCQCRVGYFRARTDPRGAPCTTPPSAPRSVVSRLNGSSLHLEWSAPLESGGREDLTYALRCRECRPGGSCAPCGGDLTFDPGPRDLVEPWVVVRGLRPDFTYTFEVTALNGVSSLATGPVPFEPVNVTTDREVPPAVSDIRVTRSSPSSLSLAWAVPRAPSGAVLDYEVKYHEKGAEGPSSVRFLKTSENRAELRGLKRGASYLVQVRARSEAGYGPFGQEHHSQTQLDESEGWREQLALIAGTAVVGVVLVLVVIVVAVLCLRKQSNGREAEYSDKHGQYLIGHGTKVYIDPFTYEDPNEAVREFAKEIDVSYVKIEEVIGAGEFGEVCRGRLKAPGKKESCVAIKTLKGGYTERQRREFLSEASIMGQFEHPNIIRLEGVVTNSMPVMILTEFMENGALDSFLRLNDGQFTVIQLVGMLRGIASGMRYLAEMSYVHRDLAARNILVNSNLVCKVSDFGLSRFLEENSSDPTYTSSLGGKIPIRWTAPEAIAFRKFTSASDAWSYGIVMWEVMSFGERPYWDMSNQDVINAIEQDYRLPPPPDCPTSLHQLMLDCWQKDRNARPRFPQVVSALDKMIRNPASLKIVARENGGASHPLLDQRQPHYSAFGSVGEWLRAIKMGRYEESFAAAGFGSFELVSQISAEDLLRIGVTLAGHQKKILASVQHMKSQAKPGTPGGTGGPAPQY
To be noted: 10 µM, n=1; kinase EPHB4; read-out: Percent inhibition EPHB4. The procedure, abridged: as §1

In assay [7] the target is T7, panel of 203 kinases (Homo sapiens, UniProt Q04771).
T7 construct: purchased DiscoverX (KINOMEscan)
T7 sequence (Q04771 21-509): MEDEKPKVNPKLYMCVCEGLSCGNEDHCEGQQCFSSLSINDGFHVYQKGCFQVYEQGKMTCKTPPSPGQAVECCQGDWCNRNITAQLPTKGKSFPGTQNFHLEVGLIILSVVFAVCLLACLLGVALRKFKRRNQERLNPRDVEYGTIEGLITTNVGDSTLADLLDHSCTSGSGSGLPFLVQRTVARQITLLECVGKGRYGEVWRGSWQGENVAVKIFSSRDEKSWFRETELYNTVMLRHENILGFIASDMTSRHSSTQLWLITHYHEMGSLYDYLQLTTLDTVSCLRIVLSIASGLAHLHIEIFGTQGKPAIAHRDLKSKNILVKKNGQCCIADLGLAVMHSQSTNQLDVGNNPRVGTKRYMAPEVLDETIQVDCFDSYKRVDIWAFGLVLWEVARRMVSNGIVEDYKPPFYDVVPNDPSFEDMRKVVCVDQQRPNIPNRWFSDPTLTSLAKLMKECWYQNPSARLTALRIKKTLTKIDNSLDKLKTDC
As to conditions: 10 µM, n=1; kinase ACVR1; read-out: Percent inhibition ACVR1. Put shortly:
as §1

Assay [8] addresses T8, panel of 203 kinases (Homo sapiens, UniProt Q13705).
T8 construct: purchased DiscoverX (KINOMEscan)
As to conditions: 10 µM, n=1; kinase ACVR2B; read-out: Percent inhibition ACVR2B. The procedure, abridged: as §1

Assay [9] addresses T9, panel of 203 kinases (Homo sapiens, UniProt Q92918).
T9 construct: purchased DiscoverX (KINOMEscan)
As to conditions: 10 µM, n=1; kinase MAP4K1; read-out: Percent inhibition MAP4K1. The procedure, abridged: as §1

The target of assay [10] is T10, panel of 203 kinases (Homo sapiens, UniProt Q96D53).
T10 construct: purchased DiscoverX (KINOMEscan)
T10 sequence (Q96D53 1-544): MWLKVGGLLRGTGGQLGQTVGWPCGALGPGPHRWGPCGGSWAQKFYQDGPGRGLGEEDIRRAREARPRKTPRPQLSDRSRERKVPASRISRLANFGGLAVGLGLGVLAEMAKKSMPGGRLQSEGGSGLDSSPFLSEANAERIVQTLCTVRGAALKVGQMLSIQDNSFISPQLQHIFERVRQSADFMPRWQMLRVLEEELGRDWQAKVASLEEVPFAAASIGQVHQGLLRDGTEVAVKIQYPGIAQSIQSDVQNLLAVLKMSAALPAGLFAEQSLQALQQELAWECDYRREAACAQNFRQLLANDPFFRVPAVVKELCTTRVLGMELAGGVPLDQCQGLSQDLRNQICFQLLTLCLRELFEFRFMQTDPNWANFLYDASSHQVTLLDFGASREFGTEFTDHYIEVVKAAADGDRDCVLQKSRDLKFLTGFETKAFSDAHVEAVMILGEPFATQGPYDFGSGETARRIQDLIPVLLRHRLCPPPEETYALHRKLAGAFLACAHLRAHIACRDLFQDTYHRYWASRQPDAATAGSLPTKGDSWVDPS
As to conditions: 10 µM, n=1; kinase ADCK4; read-out: Percent inhibition ADCK4. Put shortly: as §1

T1 sequence (P07332 whole entry): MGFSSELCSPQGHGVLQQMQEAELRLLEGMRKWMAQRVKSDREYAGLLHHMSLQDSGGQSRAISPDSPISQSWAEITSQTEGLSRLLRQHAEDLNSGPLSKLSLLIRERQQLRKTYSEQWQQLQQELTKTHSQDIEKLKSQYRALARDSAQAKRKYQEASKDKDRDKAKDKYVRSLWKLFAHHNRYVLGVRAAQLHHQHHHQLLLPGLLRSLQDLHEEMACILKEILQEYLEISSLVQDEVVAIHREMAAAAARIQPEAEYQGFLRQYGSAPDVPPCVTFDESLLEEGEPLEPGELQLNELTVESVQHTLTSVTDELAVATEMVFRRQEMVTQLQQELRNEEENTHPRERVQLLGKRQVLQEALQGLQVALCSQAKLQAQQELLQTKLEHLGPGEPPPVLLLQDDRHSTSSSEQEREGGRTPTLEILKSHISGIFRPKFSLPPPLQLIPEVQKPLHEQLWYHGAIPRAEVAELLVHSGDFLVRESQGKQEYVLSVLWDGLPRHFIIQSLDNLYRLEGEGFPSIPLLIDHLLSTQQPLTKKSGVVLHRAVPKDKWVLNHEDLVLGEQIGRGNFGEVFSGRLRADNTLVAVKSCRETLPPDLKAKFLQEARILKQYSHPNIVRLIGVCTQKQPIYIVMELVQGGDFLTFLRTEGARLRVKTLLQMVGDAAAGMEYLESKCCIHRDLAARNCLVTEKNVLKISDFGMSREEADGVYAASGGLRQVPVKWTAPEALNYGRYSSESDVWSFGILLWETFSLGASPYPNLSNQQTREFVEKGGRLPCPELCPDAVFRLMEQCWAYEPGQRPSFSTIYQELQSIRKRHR
T9 sequence (Q92918 whole entry): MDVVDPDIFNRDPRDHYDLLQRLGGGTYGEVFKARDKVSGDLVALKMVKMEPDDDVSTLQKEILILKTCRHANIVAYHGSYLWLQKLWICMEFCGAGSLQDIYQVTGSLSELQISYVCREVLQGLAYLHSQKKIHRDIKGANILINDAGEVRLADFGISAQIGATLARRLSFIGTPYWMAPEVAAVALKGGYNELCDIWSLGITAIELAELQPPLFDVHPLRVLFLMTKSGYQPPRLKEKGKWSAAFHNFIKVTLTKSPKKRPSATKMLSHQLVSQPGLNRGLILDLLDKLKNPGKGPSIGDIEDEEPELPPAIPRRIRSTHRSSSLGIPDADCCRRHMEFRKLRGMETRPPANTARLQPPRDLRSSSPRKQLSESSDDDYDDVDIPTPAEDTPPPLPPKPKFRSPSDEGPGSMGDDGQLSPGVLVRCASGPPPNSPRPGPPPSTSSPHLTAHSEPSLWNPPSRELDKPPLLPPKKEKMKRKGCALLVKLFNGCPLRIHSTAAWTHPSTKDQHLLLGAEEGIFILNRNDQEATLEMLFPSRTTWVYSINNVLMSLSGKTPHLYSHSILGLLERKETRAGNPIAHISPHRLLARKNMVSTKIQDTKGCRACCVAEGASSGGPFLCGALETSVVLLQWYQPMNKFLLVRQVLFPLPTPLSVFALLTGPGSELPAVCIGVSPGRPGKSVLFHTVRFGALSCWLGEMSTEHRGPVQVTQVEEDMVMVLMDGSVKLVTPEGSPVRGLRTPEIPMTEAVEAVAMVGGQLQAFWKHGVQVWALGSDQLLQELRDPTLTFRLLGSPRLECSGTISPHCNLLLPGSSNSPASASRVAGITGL
T8 sequence (Q13705 19-512): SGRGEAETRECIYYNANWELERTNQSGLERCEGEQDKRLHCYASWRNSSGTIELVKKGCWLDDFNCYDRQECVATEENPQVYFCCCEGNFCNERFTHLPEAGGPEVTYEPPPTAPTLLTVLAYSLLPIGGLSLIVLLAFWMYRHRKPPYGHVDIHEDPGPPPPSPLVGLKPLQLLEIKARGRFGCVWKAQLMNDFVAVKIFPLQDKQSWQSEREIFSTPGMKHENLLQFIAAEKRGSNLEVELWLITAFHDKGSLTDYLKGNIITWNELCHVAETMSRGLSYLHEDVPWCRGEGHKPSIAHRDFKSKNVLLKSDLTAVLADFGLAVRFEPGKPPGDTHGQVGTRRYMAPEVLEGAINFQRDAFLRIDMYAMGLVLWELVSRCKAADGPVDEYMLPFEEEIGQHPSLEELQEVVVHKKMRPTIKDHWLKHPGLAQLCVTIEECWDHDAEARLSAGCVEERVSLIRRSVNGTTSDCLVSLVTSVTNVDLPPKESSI

As to `CN1CCN(c2ccc(Nc3nccc(-c4cnn5ncccc45)n3)cc2C#N)CC1` [Compound 1], the inhibition at 10 µM at panel of 203 kinases [1] was found to be 66.7%; on panel of 203 kinases [2], 89.5%; on panel of 203 kinases [3], 0%; at panel of 203 kinases [4], 0%; on panel of 203 kinases [5] it was 0%; on panel of 203 kinases [6], 0%. Further, the inhibition at 10 µM on panel of 203 kinases [7] worked out at 98.8%; at panel of 203 kinases [8], 0%; at panel of 203 kinases [9], 99.5%; on panel of 203 kinases [10], 98.6%.

For `COc1ccc(Nc2nccc(-c3cnn4ncccc34)n2)cc1` [Compound 2], the inhibition at 10 µM at panel of 203 kinases [1] stood at 84.9%; on panel of 203 kinases [2], 67.4%; at panel of 203 kinases [3] it was 74.7%; on panel of 203 kinases [4] it was 0%; at panel of 203 kinases [5], 0%; at panel of 203 kinases [6] it was 0%. For the same compound, the inhibition at 10 µM on panel of 203 kinases [7] was 92.1%; on panel of 203 kinases [8] it was 80.3%; on panel of 203 kinases [9], 0%; at panel of 203 kinases [10], 94.5%.

On to `Cc1ccc(O)cc1Nc1ccnc(Nc2cccc(C(N)=O)c2)n1` [Compound 3], for which the inhibition at 10 µM on panel of 203 kinases [1] was found to be 96.7%; at panel of 203 kinases [2], 100%; on panel of 203 kinases [3] it was 95%; at panel of 203 kinases [4] it was 82.4%; at panel of 203 kinases [5], 99.9%; at panel of 203 kinases [6], 100%. Further, the inhibition at 10 µM is 99.7% on panel of 203 kinases [7], 100% at panel of 203 kinases [8], 83.9% on panel of 203 kinases [9] and 100% on panel of 203 kinases [10].

In the case of `Cc1ccc(O)cc1N(C)c1ccnc(Nc2cccc(S(N)(=O)=O)c2)n1` [Compound 4], the inhibition at 10 µM turned out to be 100% on panel of 203 kinases [1]; 100% at panel of 203 kinases [2]; 99.6% at panel of 203 kinases [3]; 0% at panel of 203 kinases [4]; 99.5% on panel of 203 kinases [5]; 100% on panel of 203 kinases [6]. Moreover, the inhibition at 10 µM worked out at 99.9% at panel of 203 kinases [7], 100% on panel of 203 kinases [8], 99.5% at panel of 203 kinases [9] and 100% at panel of 203 kinases [10].

`Fc1cccc(COc2ccc(Nc3ncnc4c3CN(CCN3CCOCC3)CC4)cc2Cl)c1` [Compound 6]: the inhibition at 10 µM on panel of 203 kinases [1], at panel of 203 kinases [2], on panel of 203 kinases [3], on panel of 203 kinases [4], on panel of 203 kinases [5] and on panel of 203 kinases [6] was 0% each time. The inhibition at 10 µM on panel of 203 kinases [7], on panel of 203 kinases [8], at panel of 203 kinases [9] and on panel of 203 kinases [10] was 0% throughout.

`COc1cc(Nc2nccc(-c3sc(N)nc3-c3cccc(NC(=O)c4c(F)cccc4F)c3)n2)cc(OC)c1OC` [Compound 7]: the inhibition at 10 µM was determined as 99.8% at panel of 203 kinases [1]; 100% on panel of 203 kinases [2]; 99% at panel of 203 kinases [3]; 100% at panel of 203 kinases [4]; 99.4% on panel of 203 kinases [5]; 91.9% at panel of 203 kinases [6]. Also, the inhibition at 10 µM at panel of 203 kinases [7] is 0%; on panel of 203 kinases [8] it was 97.5%; on panel of 203 kinases [9] it was 96.3%; on panel of 203 kinases [10] it was 100%.

As to `C[C@@H](Oc1cc(-c2cnc3ccccn23)sc1C(N)=O)c1ccccc1Cl` [Compound 8], the inhibition at 10 µM at panel of 203 kinases [1], on panel of 203 kinases [2], at panel of 203 kinases [3], on panel of 203 kinases [4], at panel of 203 kinases [5] and on panel of 203 kinases [6] was 0% throughout. Besides, the inhibition at 10 µM on panel of 203 kinases [7], on panel of 203 kinases [8], at panel of 203 kinases [9] and at panel of 203 kinases [10] was 0% in each case.

With `c1ccc(COc2cccc(-c3ccnc4[nH]ccc34)c2)cc1` [Compound 9], the inhibition at 10 µM on panel of 203 kinases [1], on panel of 203 kinases [2], at panel of 203 kinases [3], at panel of 203 kinases [4], on panel of 203 kinases [5] and on panel of 203 kinases [6] was 0% each time. Besides, the inhibition at 10 µM at panel of 203 kinases [7], at panel of 203 kinases [8], on panel of 203 kinases [9] and on panel of 203 kinases [10] was 0% throughout.

As to `Clc1ccc(Nc2ncc(-c3ccccc3)s2)cc1` [Compound 10], the inhibition at 10 µM at panel of 203 kinases [1], on panel of 203 kinases [2], on panel of 203 kinases [3], at panel of 203 kinases [4], on panel of 203 kinases [5] and at panel of 203 kinases [6] was 0% in each case. The inhibition at 10 µM on panel of 203 kinases [7], at panel of 203 kinases [8], at panel of 203 kinases [9] and at panel of 203 kinases [10] was 0% each time.

Turning to `Nc1ncc2c(-c3ccncc3)c[nH]c2n1` [Compound 11], the inhibition at 10 µM at panel of 203 kinases [1] amounted to 0%; on panel of 203 kinases [2] it was 76.8%; at panel of 203 kinases [3], 0%; on panel of 203 kinases [4], 0%; at panel of 203 kinases [5], 0%; on panel of 203 kinases [6], 0%. For the same compound, the inhibition at 10 µM at panel of 203 kinases [7] is 66.2%; at panel of 203 kinases [8], 65.7%; on panel of 203 kinases [9] it was 0%; at panel of 203 kinases [10], 0%.

The term inhibition denotes the change of the read-out against control, counted positive when it falls.
